Experimental data taken from paper PMC3125149, “SCYX-7158, an Orally-Active Benzoxaborole for the Treatment of Stage 2 Human African Trypanosomiasis” (PLoS Neglected Tropical Diseases, 2011).
Where two headings read alike, the source gives them in different places. Blank lines part the entries; values can stand above or below the compound they belong to.

Assays:
T. b. brucei TREU 667 = conditions: cited from earlier work
[1] = mouse, in vivo, po; cited from earlier work
GVR35 stage 2 HAT model = conditions: ref R. Brun, personal communication, cited from earlier work
[2] = Pharmacokinetics in cynomolgus monkeys; format: in vivo, cynomolgus monkey
Description: (§1) The blood distribution, CNS disposition and pharmacokinetics of SCYX-7158 were evaluated in infected or non-infected rodents following intravenous or oral administration of compounds. Pharmacokinetics and bioavailability of SCYX-7158 were also evaluated in non-infected beagle dogs and cynomolgus monkeys. In-life phases of non-infected rodent studies were performed at Vivisource (Waltham, MA); studies in non-naïve cynomolgus monkeys were performed by SNBL USA (Everett, WA). Male CD-1 mice (∼25 g), male Sprague-Dawley rats (∼225 g), or male cynomolgus monkeys (∼3–5 kg) were administered test article by either bolus intravenous injection (IV) or oral gavage. Animals in the IV groups received a single 2 mg/kg IV dose. Animals received oral doses of test articles as either single or twice daily doses ranging from 8 mg/kg to 50 mg/kg. All doses were administered as clear colorless solutions in either 50% (v/v) PEG 400: 20% (v/v) ethanol: 30% (v/v) carboxymethylcellulose (0.5% w/v in sterile water for injection) or 2% (v/v) ethanol: 5% (w/v) dextrose in sterile water for injection. […] For pharmacokinetic analysis, blood samples were collected from mice via cardiac puncture under terminal anaesthesia. Serial blood samples were collected from rats via a vascular access port located in the lateral saphenous vein. Mice and rats were euthanized in a CO2 chamber before collection of terminal blood samples or brain tissue. Blood samples were collected into polypropylene tubes containing K2EDTA anticoagulant and stored on ice until centrifuged for the preparation of plasma. Plasma was stored at −70°C. Whole brains were collected following decapitation, blotted dry, placed into polypropylene containers and then immediately frozen at approximately −70°C. CSF was collected from rats via cisterna magna puncture, placed in sterile polypropylene tubes, and stored at approximately −70°C. […] Treated samples were gently mixed at room temperature for 10 min, and then centrifuged at approximately 3000×g for 15 min at 15°C. The supernatants were transferred to 96-well plates or HPLC vials for analysis by LC-MS/MS. Pharmacokinetic parameters were calculated from composite mean plasma or tissue data using non-compartmental (oral and intravenous routes) and bi-exponential (intravenous route) analyses in Microsoft Excel.

T. b. brucei 427 = test: In vitro compound sensitivity assay (resazurin viability); format: cell-based; conditions: T. b. brucei S427; at 10 µM
From the text: The bloodstream-form T. b. brucei 427 strain was obtained from Dr. K. Stuart (Seattle Biomedical Research Institute, Seattle, WA) and was used for routine assessment of compound sensitivity in vitro. Additional strains used in vitro include T. b. rhodesiense STIB900, isolated in 1992 from a patient in Tanzania, and T. b. gambiense 108R, isolated from a patient in Democratic Republic of Congo in 2005. T. b. brucei EATRO 110 was a generous gift from the late William Trager of the Rockefeller University. T. b. brucei TREU 667 strains were kindly provided by F. W. Jennings at the University of Glasgow. Both T. b. brucei EATRO 110 and TREU 667 were cultured according to previously described conditions and used for in vivo studies.[18], [19]
T. b. brucei was cultured in complete HMI-9 medium,[20] which contains 10% fetal bovine serum (FBS) (Invitrogen, Carlsbad, CA), 10% Serum Plus medium (SAFC Biosciences, Lenexa, KS), and 100 units/mL penicillin and 0.1 mg/mL streptomycin. The trypanosomes were propagated in T-25 vented cap flasks (Corning Inc., Lowell, MA) at 37°C and 5% CO2 with humidity. To ensure log growth phase, trypanosomes were sub-cultured at appropriate dilutions (typically 1∶100) every 2–3 days in fresh HMI-9 medium. T. b. rhodesiense parasites were grown in MEM medium with Earle's salts supplemented with 15% horse serum. For T. b. gambiense, the MEM medium was supplemented with 5% heat-inactivated fetal calf serum (FCS) and 15% human serum.[21] L929 mouse fibroblast cells (ATCC CCL1, American Type Culture Collection, Rockville, MD) were used to determine parasite versus mammalian cell selectivity. Cells were cultured in Dulbecco's Modified Eagle Medium (DMEM), supplemented with 10% FBS, L-glutamine and 100 units/mL penicillin and 0.1 mg/mL streptomycin. MDCKII-hMDR1 cells were generously provided by P. Borst at the Netherlands Kancer Institute. Cells were cultured in DMEM with Glutamax, 10% (v/v) FBS, and 100 units/mL penicillin and 0.1 mg/mL streptomycin. Cell monolayers were fed with cell culture media 24 h after seeding and used for permeability studies 3 days later.
(§2) Compounds to be tested were serially diluted in DMSO and added to 96-well plates to give final concentrations ranging from 5 to 0.01 µg/mL. T. b. brucei parasites in the log phase of growth were diluted in HMI-9 media and added to each well for a final concentration of 1×10^4 parasites per well. For the sensitivity assays using T. b. rhodesiense and T. b. gambiense, pararasites were cultured in MEM supplemented with Baltz components (8), diluted in the aforementioned culture media, and added to each well at a density of 1×10^3 cells/well. The final concentration of DMSO was 0.5% and the total volume was 100 µL/well. After a 72 h incubation, resazurin (Sigma-Aldrich, St. Louis, MO) was added to each well [20 µL of 25 mg/100 mL stock in phosphate buffered saline (PBS)] and incubated for an additional 4–6 h.[22] To assess cell viability, fluorescence was quantified using an EnVision Multilabel Plate Reader (Perkin Elmer, Waltham, MA) at an excitation wavelength of 530 nm and emission of 590 nm. Triplicate data points were averaged to generate sigmoidal dose-response curves and determine IC50 values using XLfit curve fitting software from IDBS (Guilford, UK). The IC50 is defined as the amount of compound required to decrease parasite or cell viability by 50% compared to those grown in the absence of the test compound. […]

[3] = Pharmacokinetics in uninfected mice; format: in vivo, mouse
Description: as §1

CYP2C9 = molecular target: T1, CYP2C9 (Homo sapiens, UniProt P11712); test: P450-Glo cytochrome P450 inhibition; format: biochemical; conditions: human recombinant CYP2C9
T1 construct: purchased Promega Inc., Madison, WI
Description: (§3) The potential for compound to exert drug-drug interactions that are mediated through inhibition of cytochrome P450 activities was assessed using P450-Glo assay kits (Promega Inc., Madison, WI). Assays for human cytochrome P450 isoforms 3A4, 1A2, 2C9, 2C19, and 2D6 were performed in triplicate according to the manufacturer's instructions over the concentration range 1–100 µM (n = 6 levels). Briefly, SCYX-7158 was added to membrane preparations containing human recombinant CYP450 enzymes together with luminogenic substrates specific to each isoform. Specific CYP450 inhibitors were included as positive controls (ketoconazole, CYP3A4; alpha-napthoflavone, 1A2; sulfaphenazole, CYP2C9; troglitazone, 2C19, and quinidine, CYP2D6). Reactions were initiated by addition of NADPH-regenerating solution and were allowed to incubate for an additional 15–30 min (isoform dependent). Luciferin detection reagent, containing the luciferin-labeled probe substrate, was then added. Luminescence was recorded on an EnVision Multilabel Plate Reader. Calculation of IC50 concentrations for each enzyme was determined using GraphPad Prism (V5.01).

CYP1A2 = molecular target: T2, CYP1A2 (Homo sapiens, UniProt P05177); test: P450-Glo cytochrome P450 inhibition; format: biochemical; conditions: human recombinant CYP1A2
T2 construct: purchased Promega Inc., Madison, WI
Description: as §3

CYP2C19 = molecular target: T3, CYP2C19 (Homo sapiens, UniProt P33261); test: P450-Glo cytochrome P450 inhibition; format: biochemical; conditions: human recombinant CYP2C19
T3 construct: purchased Promega Inc., Madison, WI
Description: as §3

CYP2D6 = molecular target: T4, CYP2D6 (Homo sapiens, UniProt P10635); test: P450-Glo cytochrome P450 inhibition; format: biochemical; conditions: human recombinant CYP2D6
T4 construct: purchased Promega Inc., Madison, WI
Description: as §3

CYP3A4 = molecular target: T5, CYP3A4 (Homo sapiens, UniProt P08684); test: P450-Glo cytochrome P450 inhibition; format: biochemical; conditions: human recombinant CYP3A4
T5 construct: purchased Promega Inc., Madison, WI
Description: as §3

[4] = Pharmacokinetics in uninfected rats; format: in vivo, rat
Description: as §1

[5] = Pharmacokinetics in uninfected mice; format: in vivo, mouse; conditions: male, CD-1, mouse; oral dose of 56 mg/kg SCYX-7158, plasma
T. b. brucei = test: Effect of serum on trypanocidal activity; format: cell-based; conditions: 25% mouse serum or 50% bovine serum
Description: as §2

T3 sequence (P33261 whole entry): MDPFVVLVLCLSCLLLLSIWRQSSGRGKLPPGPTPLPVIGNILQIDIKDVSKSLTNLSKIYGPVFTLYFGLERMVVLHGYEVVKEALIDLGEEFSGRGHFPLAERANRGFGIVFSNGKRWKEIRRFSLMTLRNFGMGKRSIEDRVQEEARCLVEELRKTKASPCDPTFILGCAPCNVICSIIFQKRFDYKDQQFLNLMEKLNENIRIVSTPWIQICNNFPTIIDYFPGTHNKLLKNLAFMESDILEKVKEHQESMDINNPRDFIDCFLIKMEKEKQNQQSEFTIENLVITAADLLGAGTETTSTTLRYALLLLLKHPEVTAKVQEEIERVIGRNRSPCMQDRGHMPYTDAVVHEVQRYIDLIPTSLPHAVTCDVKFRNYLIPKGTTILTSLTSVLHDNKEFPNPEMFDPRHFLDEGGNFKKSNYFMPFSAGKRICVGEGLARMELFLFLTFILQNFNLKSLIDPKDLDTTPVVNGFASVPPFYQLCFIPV
T4 sequence (P10635 whole entry): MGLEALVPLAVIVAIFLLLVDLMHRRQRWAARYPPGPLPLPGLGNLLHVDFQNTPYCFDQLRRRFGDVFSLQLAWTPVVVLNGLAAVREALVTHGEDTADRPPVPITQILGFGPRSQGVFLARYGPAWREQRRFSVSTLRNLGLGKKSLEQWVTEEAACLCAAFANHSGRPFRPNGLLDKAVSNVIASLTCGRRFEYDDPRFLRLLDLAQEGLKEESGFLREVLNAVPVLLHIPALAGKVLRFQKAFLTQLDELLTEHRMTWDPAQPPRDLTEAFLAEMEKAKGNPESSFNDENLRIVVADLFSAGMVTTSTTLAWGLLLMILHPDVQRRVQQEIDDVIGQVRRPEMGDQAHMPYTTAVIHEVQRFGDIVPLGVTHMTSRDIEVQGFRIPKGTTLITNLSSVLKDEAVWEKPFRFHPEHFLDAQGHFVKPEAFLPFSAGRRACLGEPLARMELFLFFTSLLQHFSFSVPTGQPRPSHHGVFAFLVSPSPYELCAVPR
T5 sequence (P08684 whole entry): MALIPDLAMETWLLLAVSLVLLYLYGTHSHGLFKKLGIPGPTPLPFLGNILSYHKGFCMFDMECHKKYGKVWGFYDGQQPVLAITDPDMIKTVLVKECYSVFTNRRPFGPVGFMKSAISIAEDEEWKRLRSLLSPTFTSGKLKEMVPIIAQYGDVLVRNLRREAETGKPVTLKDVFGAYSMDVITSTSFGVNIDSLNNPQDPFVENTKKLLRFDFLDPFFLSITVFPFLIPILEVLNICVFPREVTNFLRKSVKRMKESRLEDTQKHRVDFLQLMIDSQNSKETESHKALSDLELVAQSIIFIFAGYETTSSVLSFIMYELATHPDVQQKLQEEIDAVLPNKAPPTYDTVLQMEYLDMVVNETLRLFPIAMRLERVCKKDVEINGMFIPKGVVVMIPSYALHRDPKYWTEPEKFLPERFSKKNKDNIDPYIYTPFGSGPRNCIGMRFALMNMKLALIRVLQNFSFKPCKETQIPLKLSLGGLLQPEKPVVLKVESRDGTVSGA
T1 sequence (P11712 whole entry): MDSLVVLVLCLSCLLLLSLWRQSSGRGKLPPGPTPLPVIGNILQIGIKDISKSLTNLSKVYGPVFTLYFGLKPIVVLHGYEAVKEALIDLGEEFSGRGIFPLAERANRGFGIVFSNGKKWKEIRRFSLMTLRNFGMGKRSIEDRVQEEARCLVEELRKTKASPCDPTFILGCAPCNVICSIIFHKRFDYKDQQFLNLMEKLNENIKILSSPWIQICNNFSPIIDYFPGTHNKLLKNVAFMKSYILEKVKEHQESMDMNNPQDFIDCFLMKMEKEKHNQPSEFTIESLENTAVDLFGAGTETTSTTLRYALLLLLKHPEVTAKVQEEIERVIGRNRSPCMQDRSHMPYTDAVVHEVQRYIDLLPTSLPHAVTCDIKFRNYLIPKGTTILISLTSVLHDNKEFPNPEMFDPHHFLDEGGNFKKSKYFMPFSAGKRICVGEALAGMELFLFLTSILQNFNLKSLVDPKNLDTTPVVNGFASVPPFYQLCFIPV
T2 sequence (P05177 whole entry): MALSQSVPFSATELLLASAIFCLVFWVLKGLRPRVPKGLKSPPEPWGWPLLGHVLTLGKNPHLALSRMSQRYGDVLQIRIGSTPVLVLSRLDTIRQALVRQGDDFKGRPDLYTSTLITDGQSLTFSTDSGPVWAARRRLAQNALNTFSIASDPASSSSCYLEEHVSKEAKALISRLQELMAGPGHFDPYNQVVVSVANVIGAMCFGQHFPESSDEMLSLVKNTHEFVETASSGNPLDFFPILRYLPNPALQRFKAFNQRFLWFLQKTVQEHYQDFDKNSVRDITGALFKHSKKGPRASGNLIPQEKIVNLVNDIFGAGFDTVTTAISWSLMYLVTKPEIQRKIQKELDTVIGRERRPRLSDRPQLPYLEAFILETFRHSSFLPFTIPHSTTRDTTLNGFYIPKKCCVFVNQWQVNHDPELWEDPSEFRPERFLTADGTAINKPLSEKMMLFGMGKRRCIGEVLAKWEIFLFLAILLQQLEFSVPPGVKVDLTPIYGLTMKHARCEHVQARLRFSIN

SMILES: O=C(Nc1ccc2c(c1)B(O)OC2)c1ccc(F)cc1C(F)(F)F [SCYX-6759, 4-fluoro-N-(1-hydroxy-1,3-dihydrobenzo[c][1], [2]oxaborol-6-yl)-2-trifluoromethylbenzamide]
- efficacy in stage 2 mouse model (T. b. brucei TREU 667; 50 mg/kg twice-daily intraperitoneal (100 mg/kg/day) for 14 days): fully efficacious
- efficacy in stage 2 mouse model (T. b. brucei TREU 667; 50 mg/kg twice-daily oral for 7 days): only partial efficacy
- efficacy in stage 2 mouse model (T. b. brucei TREU 667; lower doses or once-daily paradigm): not active
- time post-dose at which brain concentrations fell below the MIC [1]: approximately 12 h

SMILES: Nc1nc(N)nc(Nc2ccc([As]3SCC(CO)S3)cc2)n1 (centres unmarked) [melarsoprol]
- toxicity to mice (GVR35 stage 2 HAT model; 20 mg/kg QD x 5 days): toxic
- dose needed to effect cure (GVR35 stage 2 HAT model; QD × 5 days): 10 to 15 mg/kg

- metabolite plasma concentration as % of the SCYX-7158 concentration ([2]; 10 mg/kg NG group, all time points): approximately 1%
- AUC(0-inf) ([2]; male, cynomolgus monkey, oral, 10 mg/kg SCYX-7158 NG, plasma): 6400 ng·h/mL
- Cmax ([2]; male, cynomolgus monkey, oral, 10 mg/kg SCYX-7158 nasogastric (NG), plasma): 140 ng/mL
- metabolite plasma concentration as % of the SCYX-7158 concentration ([3]; oral dose of 56 mg/kg SCYX-7158, all time points): approximately 1%
- IC50 (CYP2C9): > 100 µM
- IC50 (CYP1A2): > 100 µM
- IC50 (CYP2C19): > 100 µM
- IC50 (CYP2D6): > 100 µM
- IC50 (CYP3A4): 7.5 µM
- Cmax ([4]; male, Sprague-Dawley, rat, oral dose of 10 mg/kg SCYX-7158, plasma, read-out: Cmax): 500 ng/mL
- metabolite plasma concentration as % of the SCYX-7158 concentration ([4]; oral dose of 10 mg/kg SCYX-7158, each time point): 3-5%
- Cmax [5]: 270 ng/mL
SMILES: CC(C)(O)c1ccc(NC(=O)c2ccc(F)cc2C(F)(F)F)cc1O [SCYX-3109]
- inhibition of parasite growth (T. b. brucei 427): inactive

SMILES: Cc1ccc(C(=O)Nc2ccc(S(=O)(=O)O)c3cc(S(=O)(=O)O)cc(S(=O)(=O)O)c23)cc1NC(=O)c1cccc(NC(=O)Nc2cccc(C(=O)Nc3cc(C(=O)Nc4ccc(S(=O)(=O)O)c5cc(S(=O)(=O)O)cc(S(=O)(=O)O)c45)ccc3C)c2)c1 [suramin, reference compound]
- attenuation of in vitro IC50 (T. b. brucei): greater than 25 fold

SMILES: N=C(N)c1ccc(/N=N/Nc2ccc(C(=N)N)cc2)cc1 [berenil, diminazene, reference compound]
- outcome in stage 2 model (T. b. brucei TREU 667; single 10 mg/kg i.p. on day 4 after infection (positive control)): cured
- outcome in stage 2 model (T. b. brucei TREU 667; single 10 mg/kg i.p. on day 21 after infection (negative control)): do not sustain cures
- time of re-infection of the hemolymphatic system (recrudescence) (T. b. brucei TREU 667; treated 21 days after infection): 35–42 days after infection

SMILES: OB(O)O [boric acid]
- estimated maximum concentration of boric acid (borate) ([2]; not measured, equimolar to SCYX-3109, 10 mg/kg NG SCYX-7158): ≤ 0.02 µg/mL
- estimated maximum concentration of boric acid ([3]; not measured, mice, 56 mg/kg oral SCYX-7158): 0.05 µg/mL
- estimated maximum concentration of boric acid ([4]; not measured, rats, 10 mg/kg oral SCYX-7158): 0.09 µg/mL
